The target of this experiment is T1, human leukocyte elastase (HLE) (Homo sapiens, UniProt P08246).
T1 sequence (P08246 30-267): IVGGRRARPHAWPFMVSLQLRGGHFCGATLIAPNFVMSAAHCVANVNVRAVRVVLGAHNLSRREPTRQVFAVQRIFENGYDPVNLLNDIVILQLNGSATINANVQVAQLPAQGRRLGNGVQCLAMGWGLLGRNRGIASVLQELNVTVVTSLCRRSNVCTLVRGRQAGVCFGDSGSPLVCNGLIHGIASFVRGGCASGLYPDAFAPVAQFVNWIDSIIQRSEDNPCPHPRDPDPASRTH
Put plainly: Inhibition of human leukocyte elastase (HLE): rate of inactivation kon and inhibition constant Ki* (= koff/kon). Type of experiment: biochemical. The following applies: for kinact/KI: "Kon × 10^-3": value is Kon multiplied by 10^-3; for pKi: Ki* calculated as koff/kon, not a truly reversible Ki. How it is done:
Measurement of the inhibition constant, Ki, of a HLE-inhibitor complex has been described for "truly reversible inhibition constants" usually concerning competitive inhibitors. [Cha, Biochem. Pharmacol., 24, 2177-2185 (1975)]. […] Thus, instead of measuring a Ki, a Ki * is calculated which is defined as the ratio of the koff /kon, the rate of reactivation of the enzyme to the rate of inactivation of the enzyme. The values of koff and kon are measured and Ki * is then calculated. The rate of inactivation, kon, of enzymatic activity was determined for the compounds tested by measuring the enzyme activity of an aliquot of the respective enzyme as a function of time after addition of the test compound. […] The rate of inactivation is then equal to [formula] where [I] is the concentration of the inhibiting compound. The reactivation constant, koff, is similarly determined, and the inhibition constant, Ki *, is then calculated as Ki *=koff /kon The values obtained for kon and Ki * for specific substituted saccharin derivatives are shown in TABLE 3, the compounds being identified by the Example numbers above where their preparations are described.

SMILES strings stand for the structures. pKi: −log10 of the molar value. Counter-ions that a name gives are not always drawn.

As usually defined, the kinact/KI is the maximal inactivation rate divided by the concentration that gives half of it. Broadly, the pKi is −log10 of the Ki, conventionally taken in molar units.

In the case of `COc1cc(C(C)C)c2c(c1)S(=O)(=O)N(COC(=O)c1cc(C)no1)C2=O` [Example 10, 4-isopropyl-6-methoxy-2-saccharinylmethyl 3-methylisoxazole-5-carboxylate], the kinact/KI is 63000 M⁻¹ s⁻¹ and the negative-log Ki (pKi) was 9.80.
Turning to `COc1cc(C(C)C)c2c(c1)S(=O)(=O)N(COC(=O)c1c(C)c3cc(Cl)ccc3n1C)C2=O` [Example 15, 4-isopropyl-6-methoxy-2-saccharinylmethyl 1,3-dimethyl-5-chloro-indole-2-carboxylate], the second-order inactivation constant (kinact/KI) came to 6000 M⁻¹ s⁻¹ and the negative logarithm of the Ki (pKi) was 8.82.
Regarding `COc1cc(C(C)C)c2c(c1)S(=O)(=O)N(COC(=O)c1ccsc1)C2=O` [Example 6, 4-isopropyl-6-methoxy-2-saccharinylmethyl thiophene-3-carboxylate], the kinact/KI worked out at 47600 M⁻¹ s⁻¹ and the negative-log Ki (pKi) was 9.68.
Consider `COc1cc(C(C)C)c2c(c1)S(=O)(=O)N(COC(=O)c1c(C)noc1C)C2=O` [Example 12, 4-isopropyl-6-methoxy-2-saccharinylmethyl 3,5-dimethylisoxazole-4-carboxylate], for which the second-order inactivation constant (kinact/KI) worked out at 28000 M⁻¹ s⁻¹ and the pKi was 9.44.
`COc1cc(C(C)C)c2c(c1)S(=O)(=O)N(COC(=O)c1c(C)ccnc1C)C2=O` [Example 14, 4-isopropyl-6-methoxy-2-saccharinylmethyl 2,4-dimethylpyridine-3 carboxylate]: the inactivation efficiency (kinact/KI) stood at 500000 M⁻¹ s⁻¹ and the pKi is 10.70.
As to `COc1cc(C(C)C)c2c(c1)S(=O)(=O)N(COC(=O)C1CCC(=O)N1)C2=O` (centres unmarked) [Example 11, 4-isopropyl-6-methoxy-2-saccharinylmethyl-2-pyrrolidine-5-carboxylate], the kinact/KI stood at 50000 M⁻¹ s⁻¹ and the negative-log Ki (pKi) is 9.70.
Regarding `O=C(OCN1C(=O)c2ccccc2S1(=O)=O)c1c(Cl)cncc1Cl` [Example 2, 2-saccharinylmethyl 3,5-dichloropyridine-4-carboxylate], the kinact/KI turned out to be 11000 M⁻¹ s⁻¹ and the pKi was 8.00.
In the case of `CC(C)c1cccc2c1C(=O)N(COC(=O)c1c(Cl)cnc(OCCN3CCOCC3)c1Cl)S2(=O)=O` [Example 3, 4-(isopropyl]-2-saccharinylmethyl 3.5-dichloro-2-[2-(4-morpholinyl)ethoxy]pyridine-4-carboxylate hydrochloride], the kinact/KI worked out at 1.5e+06 M⁻¹ s⁻¹ and the pKi was 10.82.
Turning to `O=C(OCN1C(=O)c2ccccc2S1(=O)=O)c1ccncc1` [Example 1, 2-saccharinylmethyl pyridine-4-carboxylate], the kinact/KI came out at 1200 M⁻¹ s⁻¹ and the pKi was 7.40.
Turning to `COc1cc(C(C)C)c2c(c1)S(=O)(=O)N(COC(=O)c1c(C)nn(-c3ccccc3)c1C)C2=O` [Example 13, 4-isopropyl.-6-methoxy-2-saccharinylmethyl 3,5-dimethyl-1-phenylpyrazole-4-carboxylate], the second-order inactivation constant (kinact/KI) was found to be 9000 M⁻¹ s⁻¹ and the pKi is 8.96.
With `COc1cc(C(C)C)c2c(c1)S(=O)(=O)N(COC(=O)c1cccs1)C2=O` [Example 8, 4-isopropyl-6-methoxy-2-saccharinylmethyl thiophene-2-carboxylate], the kinact/KI turned out to be 100000 M⁻¹ s⁻¹ and the pKi is 10.00.
For the compound `COc1cc(C(C)C)c2c(c1)S(=O)(=O)N(COC(=O)c1sccc1Cl)C2=O` [Example 9, 4-isopropyl-6-methoxy-2-saccharinylmethyl 3-chlorothiophene-2-carboxylate], the kinact/KI was determined as 131000 M⁻¹ s⁻¹ and the negative logarithm of the Ki (pKi) was 10.12.
On to `CC(C)c1cccc2c1C(=O)N(COC(=O)c1c(Cl)cncc1Cl)S2(=O)=O` [Example 4, 4-isopropyl-2-saccharinylmethyl 3,5-dichloro-pyridine-4-carboxylate hydrochloride], for which the kinact/KI turned out to be 2.3e+06 M⁻¹ s⁻¹.
Consider `COc1cc(C(C)C)c2c(c1)S(=O)(=O)N(COC(=O)c1sccc1C)C2=O` [Example 7, 4-isopropyl-6-methoxy-2-saccharinylmethyl 3-methylthiophene-2-carboxylate], for which the second-order inactivation constant (kinact/KI) was found to be 625000 M⁻¹ s⁻¹ and the pKi is 10.80.
On to `COc1cc(C(C)C)c2c(c1)S(=O)(=O)N(COC(=O)c1c(Cl)cnc(OCCN(C)C)c1Cl)C2=O` [Example 5, 4-isopropyl-6-methoxy-2-saccharinylmethyl 3,5-dichloro-2-[2-(dimethylamino)ethoxy]pyridine-4-carboxylate], for which the kinact/KI is 455000 M⁻¹ s⁻¹ and the pKi is 10.66.

Values taken from US5563163A, “2-saccharinylmethyl heterocyclic carboxylates useful as proteolytic enzyme inhibitors and compositions and method of use thereof” (Sterling Winthrop, Inc., priority 1995, dated 1996).
